Test results reported in US20100298249A1, “PHARMACEUTICAL OR COSMETIC PREPARATIONS FOR TOPICAL AND/OR PARENTERAL APPLICATION, PREPARATION METHODS THEREOF AND USE OF SAME” (priority 2007, published 2010).

How the values were obtained:
[1] = humans; cited from earlier work
[2] = target: hyaluronidase of bovine origin (Bos taurus, UniProt Q2YDK3); assay: Inhibitory effect on hyaluronidase activity of bovine origin (turbidimetry of nonhydrolysed hyaluronic acid); type: biochemical; settings: various concentrations, FIG. 1
Protocol: Determination of the IC50 of GLZ, with or without Preincubation at 37° C.: GLZ, at various concentrations, is or is not preincubated for 20 minutes at 37° C. in the presence of the enzyme. The enzyme reaction is triggered by adding the hyaluronic acid solution (time T0). After incubation for 20 minutes, the nonhydrolysed hyaluronic acid is precipitated by adding acidic bovine albumin solution. In order to verify that the preincubation step has no effect on the stability of the hyaluronidase, an aliquot of a solution of the enzyme is placed at 37° C. for 20 minutes. Another aliquot is conserved in an ice bath for 19 minutes, and is then incubated at 37° C. for 1 minute. A solution of hyaluronic acid is then added to each aliquot (T0). After incubation for 15, 30 or 45 minutes, the nonhydrolysed hyaluronic acid is precipitated by addition of acidic bovine albumin solution. After the precipitation step, the turbidimetry of the solutions is determined on a spectrophotometer at a wavelength of 600 nm. The optical density (OD) of these solutions is subtracted from the OD of a control solution of hyaluronic acid (of the same concentration) not hydrolysed by the enzyme. This difference in OD, which is inversely proportional to the concentration of hyaluronic acid, is used to measure the activity of the hyaluronidase.

Chain of hyaluronidase of bovine origin (Q2YDK3 entry or part of it): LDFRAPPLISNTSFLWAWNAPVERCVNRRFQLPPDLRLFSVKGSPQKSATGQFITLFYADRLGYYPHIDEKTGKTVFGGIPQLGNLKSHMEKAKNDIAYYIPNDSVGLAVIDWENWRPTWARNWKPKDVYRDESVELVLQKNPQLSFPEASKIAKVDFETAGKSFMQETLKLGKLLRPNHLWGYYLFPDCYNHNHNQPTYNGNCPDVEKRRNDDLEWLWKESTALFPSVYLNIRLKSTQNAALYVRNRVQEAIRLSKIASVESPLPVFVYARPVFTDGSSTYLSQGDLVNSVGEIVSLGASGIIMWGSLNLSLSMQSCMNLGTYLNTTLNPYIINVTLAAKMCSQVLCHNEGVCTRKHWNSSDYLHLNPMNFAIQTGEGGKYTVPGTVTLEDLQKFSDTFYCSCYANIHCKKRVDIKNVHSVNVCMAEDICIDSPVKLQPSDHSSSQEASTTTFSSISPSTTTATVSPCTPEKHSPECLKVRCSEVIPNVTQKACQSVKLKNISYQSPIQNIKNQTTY

inhibitory effect on the bovine hyaluronidase [2]	Molecule	excretion in the urine [1]
–	hyaluronic acid	less than 1 % of total clearance
dose-dependent	CC1(C)[C@@H](O[C@H]2O[C@H](C(=O)O)[C@@H](O)[C@H](O)[C@H]2O[C@@H]2O[C@H](C(=O)O)[C@@H](O)[C@H](O)[C@H]2O)CC[C@]2(C)[C@H]3C(=O)C=C4[C@@H]5C[C@@](C)(C(=O)O)CC[C@]5(C)CC[C@@]4(C)[C@]3(C)CC[C@@H]12 [GLZ, Glycyrrhizin]	–
